Experimental data: patent US7723473B2, “Peptide antagonists of TGF-beta family members and therapeutic uses thereof” (St. Louis University, priority 1997, dated 2010)
Entries after “also recorded” stand apart in the source; their conditions may differ.

What was measured:
PAI-1 expression = PAI-1 expression in mink lung epithelial cells (Northern blot); assay type: cell-based; conditions: 0.25 ρM and 2.5 ρM TGF-β1
Method: RNA Analysis—Mink lung epithelial cells were grown overnight in 12-well clustered dishes in DMEM containing 10% fetal calf serum. The medium was then changed to DMEM containing 0.1% fetal calf serum and the cells were incubated with 0.25 and 2.5 ρM TGF-β1 in the presence of various concentrations of peptide β1^25 (41-65) for 2.5 hr. Total cellular RNA was extracted using RNAzol B (Tel-Test Inc.) according to the manufacturer's protocol. RNA was electrophoresed in 1.2% agarose-formaldehyde gel and transferred to Duralon-UV membranes using 10×SSC. The membranes were probed at 42° C. with a random-primed, radiolabeled 1-kb fragment from the Hind III and NeoI digests of PAI-1 cDNA and glyceraldehyde-3-phosphate dehydrogenase (“GAPDH”) cDNA. The blots were washed with 0.1×SSC containing 0.1% SDS at room temperature.

excision wounds = test: Pig excision wound model; assay type: in vivo; conditions: for deposition / immunostaining of fibronectin in excision wounds / deposition / immunostaining of type I collagen in excision wounds: post-excision day 30 (legend: day 28), immunohistochemistry
Method: (§1) Preparation of IntraSite® gel containing TGF-β peptantagonist (peptide TGF-beta antagonist). 1 ml of sterile 6 mM peptide β1^25 (41-65) in phosphate buffered saline or 1 ml of sterile phosphate buffered saline was vigorously mixed with 3 ml of IntraSite® gel using two 10 ml syringes connected with a three-way connector. […] However, 1.5 mM of peptide β1^25 (41-65) was used throughout the experiments described below.
(§2) Excision wound model. Four pigs received intramuscular injection of ketamine, strenil® and atropine as described above. Six excision injuries were generated by removing full-thickness sections of skin (3×3 cm) from standardized sites on the back of each animal using a scapel. Three rabbits, were anesthetized by intramuscular injection of ketamine (5 mg/kg). Three excision injuries were produced in each by removing full-thickness sections of skin (0.5×1 cm) from each ear. After wounds, a thin layer of IntraSite® gel containing peptide β1^25 (41-65) was applied to alternating wounds on each animal and IntraSite® gel+buffer was applied to the other half. The excision wounds were then dressed with a paraffin gauze. For pig experiments, the dressing was changed every two days for the first 10 days and twice a week for the next 30 days. For rabbit experiments, the dressing was changed for the first 3 days. Gel containing peptide β1^25 (41-65) or control gel was applied at each dressing change.
Assessment of wound healing. Wound healing was assessed by evaluating the rates of wound re-epithelization and contraction. The open wound area and the area enclosed by the normal hair bearing skin were measured using the macrophotography technique (Ref. 14). The healing rate was monitored every two days for the first 10 days and twice a week for 30 more days. Wound reepithelialization as a percent of the original wound size was calculated using the following formula:
[formula] where C=rate of wound contraction in percent; Al=wound area as measured immediately following the burn or excision injury; An=area enclosed by normal hair bearing skin.
Immunohistochemistry. The wounds were frozen immediately after being removed from animals on post-excision day 30. Serial sections were placed on polylysine-coated slides. The sections containing wound areas were stained with hematoxylin/eosin and monoclonal antibodies to type I collagen and fibronectin and biotin-conjugated rabbit anti-mouse IgG/streptavidin-conjugated horseradish peroxidase (Ref. 16). The stained sections were examined and photographed by light microscopy.

ear excision wounds = test: Rabbit ear excision wound model; assay type: in vivo; conditions: for scar formation: post-excision day 10
Method: as §1, §2
Measurement of scar. The volumes of scar tissue were estimated by multiplying their thickness by the size of the scar on post-burn day 41 in pigs and post-excision day 10 in rabbits.

α2-macroglobulin = target: T1, α2-macroglobulin (Homo sapiens, UniProt P01023); conditions: Ref. 22; cited from earlier work
T1 sequence (P01023 24-1474): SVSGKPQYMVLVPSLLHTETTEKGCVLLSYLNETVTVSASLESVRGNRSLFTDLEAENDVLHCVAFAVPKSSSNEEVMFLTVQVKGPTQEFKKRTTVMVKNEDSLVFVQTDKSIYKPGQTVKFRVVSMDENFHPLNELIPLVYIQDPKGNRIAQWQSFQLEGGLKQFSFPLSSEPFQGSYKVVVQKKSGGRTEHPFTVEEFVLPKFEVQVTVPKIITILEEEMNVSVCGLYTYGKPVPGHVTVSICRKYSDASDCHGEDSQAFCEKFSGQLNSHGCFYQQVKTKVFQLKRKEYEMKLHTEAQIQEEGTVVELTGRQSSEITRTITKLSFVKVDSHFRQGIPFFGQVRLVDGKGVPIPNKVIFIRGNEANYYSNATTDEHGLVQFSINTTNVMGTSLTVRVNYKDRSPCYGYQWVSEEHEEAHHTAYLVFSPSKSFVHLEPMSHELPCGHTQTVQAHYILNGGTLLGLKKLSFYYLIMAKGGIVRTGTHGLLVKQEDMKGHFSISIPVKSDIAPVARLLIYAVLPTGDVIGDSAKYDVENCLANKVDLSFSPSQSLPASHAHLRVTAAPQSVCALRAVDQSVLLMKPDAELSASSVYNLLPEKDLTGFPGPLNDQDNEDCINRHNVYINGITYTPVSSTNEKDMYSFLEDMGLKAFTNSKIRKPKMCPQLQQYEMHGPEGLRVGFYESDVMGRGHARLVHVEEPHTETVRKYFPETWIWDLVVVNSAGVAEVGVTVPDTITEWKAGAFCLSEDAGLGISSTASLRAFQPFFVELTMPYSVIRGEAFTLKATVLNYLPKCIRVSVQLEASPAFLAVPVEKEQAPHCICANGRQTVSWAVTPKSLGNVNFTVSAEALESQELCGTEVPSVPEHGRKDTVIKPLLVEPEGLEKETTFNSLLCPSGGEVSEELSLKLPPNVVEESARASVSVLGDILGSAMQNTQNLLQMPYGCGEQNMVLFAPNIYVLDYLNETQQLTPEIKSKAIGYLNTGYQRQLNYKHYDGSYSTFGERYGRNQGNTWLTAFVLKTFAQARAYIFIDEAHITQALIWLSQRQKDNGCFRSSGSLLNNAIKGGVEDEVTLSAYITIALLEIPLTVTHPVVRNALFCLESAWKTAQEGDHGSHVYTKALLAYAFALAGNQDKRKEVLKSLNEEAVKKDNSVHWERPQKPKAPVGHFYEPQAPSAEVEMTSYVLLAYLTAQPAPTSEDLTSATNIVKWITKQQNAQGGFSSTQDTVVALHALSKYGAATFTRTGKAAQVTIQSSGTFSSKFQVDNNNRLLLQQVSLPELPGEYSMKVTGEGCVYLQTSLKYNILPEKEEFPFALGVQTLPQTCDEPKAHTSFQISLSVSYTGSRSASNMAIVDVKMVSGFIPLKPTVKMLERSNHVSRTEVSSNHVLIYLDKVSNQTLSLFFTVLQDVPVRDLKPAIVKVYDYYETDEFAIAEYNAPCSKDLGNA

Sequence: ANFCLGPCPYIWSLDTQYSKVLALY [peptide β1^25 (41-65)]
- blocking of PAI-1 expression stimulated by TGF-β1 (PAI-1 expression): completely blocked
- contraction of the wound (excision wounds; 1.5 mM in gel, topical): attenuated contraction
- vertical (length of the healed wound) contraction versus vehicle only (excision wounds; 1.5 mM in gel, topical): less vertical
- vertical (length of the healed wound) contraction versus vehicle only (excision wounds; 1.5 mM in gel, topical, listed as TGF-β peptantagonist): contracted vertically less; also recorded: less vertical
- deposition / immunostaining of fibronectin in excision wounds (excision wounds): diminished the deposition
- deposition / immunostaining of type I collagen in excision wounds (excision wounds): diminished the deposition
- deposition / immunostaining of fibronectin in excision wounds (excision wounds; listed as TGF-β peptantagonist): less intensity of staining
- deposition / immunostaining of type I collagen in excision wounds (excision wounds; listed as TGF-β peptantagonist): less intensity of staining
- horizontal (width of the healed wound) contraction (excision wounds; post-excision day 41): almost contracted completely
- scar formation (ear excision wounds): attenuated scar formation
- volume of scar tissue (ear excision wounds; post-excision day 10, n=6, estimated): 0.005±0.01 cm^3
- scar formation (ear excision wounds; listed as TGF-β-peptantagonist): reduced scarring
- complex formation between α2-macroglobulin and growth factors, cytokines and hormones (α2-macroglobulin): block complex formation
